This note sets out measurements from EP0646574A1, “Ketonic indane derivatives, their preparation and therapeutic application thereof” (LABORATOIRE INNOTHERA Société Anonyme, priority 1993, dated 1995).

Where only a bound is given, the exact number is not on record here.

The subject of one assay is veines saphènes de lapin. As to the kind of experiment: contraction of isolated rabbit saphenous veins produced by KCl (40 mM). Particulars: for EC50: potentiation of KCl (40 mM) contractions of rabbit saphenous veins, read-out: DE50 (the source's name). The source says: L'effet contractile est mesuré in vitro : • par la force de contraction développée par des anneaux vasculaires quiescents ou stimulés (soit électriquement soit par des agents physiologiques) et maintenus dans des conditions isométriques, • par la pression développée par des réseaux vasculaires perfusés à débit constant.
Les composés de formule (1) et leurs sels éventuels augmentent la contraction des veines saphènes animales produite par la noradrénaline et la dépolarisation (solution hyperpotassique) sans affecter, dans la majorité des cas, les réponses contractiles artérielles. A titre illustratif, les composés des exemples 3, 5, 8, 11, 13, 15, 31 (10 nM à […]) augmentent de plus de 40 % (DE50 ± 0,3 microM) les contractions des veines saphènes de lapin produites par le KCl (40 mM).

The nature of assay [1]: free radical scavenging with DPPH as stable free radical. Particulars: DPPH model. The source says: L'effet "piégeur de radicaux libres" global est étudié in vitro par un modèle utilisant le 1,1-diphényl-2-picrylhydrazyl (DPPH) comme radical libre stable, méthode dérivée de celle décrite par Lamaison et col., Plantes Médic. et Phytothérapie, XXII, 1988, 231-234.
For orientation: Loss of DPPH colour is used to gauge radical scavenging.

The subject of the next assay is rat. The assay can be described thus: carrageenan-induced pleurisy in the rat. In kind it is in vivo. Conditions: twice i.p. 5 mg/kg, 6 hours after carrageenan injection. As to the method: L'activité antiinflammatoire est démontrée par la mesure de l'inhibition de l'oedème et de la migration leucocytaire après induction d'une pleurésie chez le rat par injection de carragénine dans la cavité pleurale (Almeida et col., J. Pharmacol. Exp. Therap., 1980, 214 : 74).
A titre illustratif, les composés des exemples 21, 23 administrés deux fois en i.p. à la dose de 5 mg/kg inhibent l'oedème et la migration leucocytaire dans la cavité pleurale, 6 heures après injection de carragénine dans le modèle de la pleurésie chez le rat.

Assay [2] relates to hyperperméabilité vasculaire induite par le zymosan. The assay can be described thus: vascular hyperpermeability induced by zymosan, in vivo. Conditions: 2 and 4 hours after per os 1 à 20 mg/kg. The source says: La perméabilité vasculaire est étudiée in vivo et in vitro par la mesure de l'extravasation d'albumine ou de colorant liant l'albumine (Bleu Evans). In vivo, l'hyperperméabilité est induite par l'injection d'une solution d'histamine, de bradykinine ou de zymosan. Les modèles in vitro permettent de réaliser des hyperpressions (sur un territoire vasculaire isolé) et/ou des réactions vasculaires inflammatoires.
A titre illustratif, les composés des exemples 28, 27, 25 diminuent l'hyperperméabilité vasculaire induite par le zymosan lorsque celle-ci est mesurée 2 et 4 heures après administration per os de 1 à 20 mg/kg.

Regarding `Nc1cccc(NC(=O)NN=c2c(=O)c3ccccc3c2=O)c1` [exemple 3, 2-[(3-Aminophenyl)aminocarbonylhydrazono]-2.3-dihydro1.3-dioxo-1H-indène], in the assay on veines saphènes de lapin, the “augmentation des contractions des veines saphènes de lapin produites par le KCl (40 mM)” value is on record as more than 40% and the EC50 was approximately 300 nM.

On to `Nc1ccc(NC(=O)NN=c2c(=O)c3ccccc3c2=O)cc1` [exemple 5, 2-[(4-Aminophenyl)aminocarbonylhydrazono]-2.3-dihydro-1.3-dioxo-1H-indène], for which, in the assay with veines saphènes de lapin, the “augmentation des contractions des veines saphènes de lapin produites par le KCl (40 mM)” value is recorded as more than 40% and the EC50 was approximately 300 nM.

`O=C(NN=c1c(=O)c2ccccc2c1=O)Nc1ccccc1[N+](=O)[O-]` [exemple 7, 2.3-Dihydro-1.3-dioxo-2-[(2-nitrophenyl)aminocarbonylhydrazono]-1H-indène]: in assay [1], the effet antiradicalaire entry is “présentent un effet antiradicalaire”.

`O=C(NN=c1c(=O)c2ccccc2c1=O)Nc1cccc([N+](=O)[O-])c1` [exemple 8, 2.3-Dihydro-1.3-dioxo-2-[(3-nitrophenyl)aminocarbonylhydrazono]-1H-indène]: in the assay on veines saphènes de lapin, the “augmentation des contractions des veines saphènes de lapin produites par le KCl (40 mM)” value is given as more than 40% and the EC50 is approximately 300 nM.

As for `O=C(NN=c1c(=O)c2ccccc2c1=O)Nc1ccc([N+](=O)[O-])cc1` [exemple 9, 2.3-Dihydro-1.3-dioxo-2-(4-nitrophenylaminocarbonylhydrazono)-1H-indène], the effet antiradicalaire result in assay [1] is on record as “présentent un effet antiradicalaire”.

Consider `O=C(NN=c1c(=O)c2ccccc2c1=O)Nc1ccccn1` [exemple 11, 2.3-Dihydro-1.3-dioxo-2-[(2-pyridyl)aminocarbonylhydrazono]-1H-indène, chlorhydrate], for which, in the assay with veines saphènes de lapin, the “augmentation des contractions des veines saphènes de lapin produites par le KCl (40 mM)” value is reported as more than 40% and the EC50 was approximately 300 nM.

Consider `O=C(NN=c1c(=O)c2ccccc2c1=O)Nc1cccnc1` [exemple 13, 2.3-Dihydro-1.3-dioxo-2-[(3-pyridyl)aminocarbonylhydrazono]-1H-indène], for which, in the assay on veines saphènes de lapin, the “augmentation des contractions des veines saphènes de lapin produites par le KCl (40 mM)” value is more than 40% and the EC50 is approximately 300 nM.

Turning to `O=C(NN=c1c(=O)c2cccc(F)c2c1=O)Nc1ccccc1` [exemple 21, 2.3-Dihydro-1.3-dioxo-4-fluoro-2-(phenylaminocarbonylhydrazono)-1H-indène], in the assay on rat, the “migration leucocytaire dans la cavité pleurale” value is on record as “inhibent” and the oedème result was “inhibent”.

For `O=C(NN=c1c(=O)c2cccc(F)c2c1=O)Nc1cccnc1` [exemple 23, 2.3-Dihydro-1.3-dioxo-4-fluoro-2-[(3-pyridyl)aminocarbonylhydrazono]-1H-indène], in the assay with rat, the “migration leucocytaire dans la cavité pleurale” value is on record as “inhibent” and the oedème result is “inhibent”.

As to `O=C(NN=c1c(=O)c2cccc(F)c2c1=O)Nc1ccncc1` [exemple 25, 2.3-Dihydro-1.3-dioxo-4-fluoro-2-[(4-pyridyl)aminocarbonylhydrazono]-1H-indène], the “hyperperméabilité vasculaire induite par le zymosan” value in assay [2] is “diminuent”.

`O=C(NN=c1c(=O)c2ccc(F)cc2c1=O)Nc1ccccc1` [exemple 27, 2.3-Dihydro-1.3-dioxo-5-fluoro-2-(phenylaminocarbonylhydrazono)-1H-indène]: the “hyperperméabilité vasculaire induite par le zymosan” value in assay [2] is listed as “diminuent”.

With `O=C(NN=c1c(=O)c2ccc(F)cc2c1=O)Nc1ccc(F)cc1` [exemple 28], the “hyperperméabilité vasculaire induite par le zymosan” value in assay [2] was “diminuent”.

Take `O=C(NN=c1c(=O)c2ccc(F)cc2c1=O)Nc1ccncc1` [exemple 31, 2.3-Dihydro-1.3-dioxo-5-fluoro-2-[(4-pyridyl)aminocarbonylhydrazono]-1H-indène]: in the assay on veines saphènes de lapin, the “augmentation des contractions des veines saphènes de lapin produites par le KCl (40 mM)” value is recorded as more than 40% and the EC50 is approximately 300 nM.
